# ChEMBL document CHEMBL3870366, “Rational design, synthesis, and structure-activity relationships of 5-amino-1H-pyrazole-4-carboxylic acid derivatives as protein tyrosine phosphatase 1B inhibitors” (Bioorg Med Chem, 2017)
# Experiments:
# [1] = Intrinsic clearance in rat liver microsomes at 1 uM preincubated for 5 mins followed by NADPH addition measured up to 30 mins by LC-MS/MS analysis; type: ADME; conditions: 0.5 h
# [2] = Intrinsic clearance in mouse liver microsomes at 1 uM preincubated for 5 mins followed by NADPH addition measured up to 30 mins by LC-MS/MS analysis; type: ADME; conditions: 0.5 h
# [3] = molecular target: T1, Tyrosine-protein phosphatase non-receptor type 1 (Homo sapiens) (UniProt P18031); experiment: Inhibition of recombinant human PTP1B expressed in Escherichia coli expression system using pNPP as substrate at 10 uM preincubated for 30 mins followed by substrate addition by […]
# T1 sequence (whole entry): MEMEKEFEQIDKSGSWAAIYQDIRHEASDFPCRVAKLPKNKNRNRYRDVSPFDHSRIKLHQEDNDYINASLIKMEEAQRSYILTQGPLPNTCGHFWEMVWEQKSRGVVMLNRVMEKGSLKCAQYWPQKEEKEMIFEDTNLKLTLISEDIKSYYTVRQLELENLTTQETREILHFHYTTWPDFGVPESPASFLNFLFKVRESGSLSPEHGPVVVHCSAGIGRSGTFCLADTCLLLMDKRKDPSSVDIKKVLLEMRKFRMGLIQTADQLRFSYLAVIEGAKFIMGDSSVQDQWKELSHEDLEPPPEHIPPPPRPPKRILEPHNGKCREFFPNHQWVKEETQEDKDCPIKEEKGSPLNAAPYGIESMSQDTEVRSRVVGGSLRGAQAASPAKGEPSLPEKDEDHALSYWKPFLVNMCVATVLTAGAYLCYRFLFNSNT
# [4] = molecular target: T1, Tyrosine-protein phosphatase non-receptor type 1 (Homo sapiens); experiment: Inhibition of recombinant human PTP1B expressed in Escherichia coli expression system using pNPP as substrate at 100 uM preincubated for 30 mins followed by substrate addition by […]
# [5] = molecular target: T2, Tyrosine-protein phosphatase non-receptor type 1 (Homo sapiens, UniProt P18031); experiment: Inhibition of recombinant human PTP1B expressed in Escherichia coli expression system using pNPP as substrate preincubated for 30 mins followed by substrate addition by […]
# T2 sequence (P18031 whole entry): T1 sequence (whole entry)
# [6] = Intrinsic permeability of compound at 50 uM at pH 7.4 after 16 hrs by PAMPA assay; type: ADME
SMILES,intrinsic clearance (CLint) [1] [mL/min/g],CLH [2] [mL/min/g],inhibition [3] [%],inhibition [4] [%],Ki [5] [µM],"Papp at 16 h, 50 µM [6] [×10⁻⁶ cm/s]"
COc1ccc(CN(Cc2ccc(F)cc2)Cc2ccc(-n3ncc(C(=O)O)c3N)cc2)cc1OC,4,7.4,35.1,94,4.1,–
COc1ccc(C(Cc2ccc(-n3ncc(C(=O)O)c3N)cc2)c2nc(-c3ccc(Cl)cc3)no2)cc1 (stereo not given),2,1.5,33.7,98.3,4.4,–
Nc1c(C(=O)O)cnn1-c1ccc(CN(Cc2ccc(F)cc2)Cc2ccc(F)c(F)c2)cc1,3,2.7,19.5,95.2,13,27.9
Nc1c(C(=O)O)cnn1-c1ccc(CC(c2ccc(F)cc2)c2nc(-c3ccc(Cl)cc3)no2)cc1 (stereo not given),3,0,30.8,97.3,4.6,9.1
COc1ccc(CN(Cc2ccc(F)cc2)Cc2ccc(-n3ncc(C(=O)O)c3N)cc2)cc1,–,–,21.6,82.2,–,–
Nc1c(C(=O)O)cnn1-c1ccc(CC(C(=O)c2ccccc2)c2ccc(F)cc2)cc1 (stereo not given),–,–,19,43.9,–,–
COc1ccc(CN(Cc2ccc(OC)cc2)Cc2ccc(-n3ncc(C(=O)O)c3N)cc2)cc1,2.5,5.6,9.9,76.9,7.1,12.5
COc1ccc(C(=O)C(Cc2ccc(-n3ncc(C(=O)O)c3N)cc2)c2ccc(OC)cc2)cc1 (stereo not given),–,–,4.8,39.7,–,–
Nc1c(C(=O)O)cnn1-c1ccc(CC(C(=O)c2ccc(F)cc2)c2ccc(F)cc2)cc1 (stereo not given),–,–,0.8,34.4,–,–
CC(C)NCC(O)COc1cccc2ccccc12 (stereo not given) [PROPRANOLOL],–,–,–,–,–,16.6
Nc1c(C(=O)O)cnn1-c1ccc(CC(C(=O)c2ccccc2)c2ccccc2)cc1 (stereo not given),–,–,9.6,32.6,–,–
Nc1c(C(=O)O)cnn1-c1ccc(CN(Cc2ccc(F)cc2)Cc2ccc(Cl)cc2)cc1,3,2.1,43.8,97.4,4.5,10.6
Nc1c(C(=O)O)cnn1-c1ccc(CC(C(=O)c2ccc(F)cc2)c2ccccc2)cc1 (stereo not given),–,–,12.1,36.8,–,–
COc1ccc(C(Cc2ccc(-n3ncc(C(=O)O)c3N)cc2)c2nc(-c3cccc(F)c3)no2)cc1 (stereo not given),3,1.3,22,93.3,8.6,–
Nc1c(C(=O)O)cnn1-c1ccc(CC(c2ccc(F)cc2)c2nc(-c3cccc(F)c3)no2)cc1 (stereo not given),–,–,19,94.9,–,–
Nc1c(C(=O)O)cnn1-c1ccc(CN(Cc2ccc(Cl)cc2)Cc2ccc(F)c(F)c2)cc1,2,1.2,22.5,97.2,11,49.8
COc1ccc(C(=O)C(Cc2ccc(-n3ncc(C(=O)O)c3N)cc2)c2ccc(F)cc2)cc1 (stereo not given),–,–,13.5,58.5,–,–
Nc1c(C(=O)O)cnn1-c1ccc(CC(C(=O)c2ccc(Cl)cc2)c2ccc(F)cc2)cc1 (stereo not given),–,–,18.8,89.5,–,–
Nc1c(C(=O)O)cnn1-c1ccc(CC(c2ccccc2)c2nc(-c3ccccc3)no2)cc1 (stereo not given),–,–,12.2,64,–,–
COc1ccc(CN(Cc2ccc(C)cc2)Cc2ccc(-n3ncc(C(=O)O)c3N)cc2)cc1,–,–,5,49.7,–,–
Nc1c(C(=O)O)cnn1-c1ccc(CC(C(=O)c2ccc(Cl)cc2)c2ccc(F)c(F)c2)cc1 (stereo not given),–,–,16.2,91.5,–,1.5
Nc1c(C(=O)O)cnn1-c1ccc(CC(C(=O)c2ccc(F)cc2)c2ccc(F)c(F)c2)cc1 (stereo not given),–,–,21.6,82.2,–,–
Nc1c(C(=O)O)cnn1-c1ccc(CC(C(=O)c2ccccc2)c2ccc(F)c(F)c2)cc1 (stereo not given),–,–,10.5,48.5,–,–
Nc1c(C(=O)O)cnn1-c1ccc(CN(Cc2ccc(F)cc2)Cc2ccc(F)cc2)cc1,–,–,40.8,98.4,–,–
COc1ccc(-c2noc(C(Cc3ccc(-n4ncc(C(=O)O)c4N)cc3)c3ccc(F)cc3)n2)cc1 (stereo not given),3,1.5,25.8,95.5,8.1,0.4
Nc1c(C(=O)O)cnn1-c1ccc(CN(Cc2ccccc2)Cc2ccccc2)cc1,–,–,8.9,64,–,–
